According to BindingDB's records for doi:10.1021/jm0603116 (Infinity Pharmaceuticals, 2006):

Biological target: Endoplasmin (Canis lupus familiaris, UniProt P41148)
Experiment: Inhibition of BODIPY-AG binding to dog Grp94

Sequence of Endoplasmin (P41148 whole entry): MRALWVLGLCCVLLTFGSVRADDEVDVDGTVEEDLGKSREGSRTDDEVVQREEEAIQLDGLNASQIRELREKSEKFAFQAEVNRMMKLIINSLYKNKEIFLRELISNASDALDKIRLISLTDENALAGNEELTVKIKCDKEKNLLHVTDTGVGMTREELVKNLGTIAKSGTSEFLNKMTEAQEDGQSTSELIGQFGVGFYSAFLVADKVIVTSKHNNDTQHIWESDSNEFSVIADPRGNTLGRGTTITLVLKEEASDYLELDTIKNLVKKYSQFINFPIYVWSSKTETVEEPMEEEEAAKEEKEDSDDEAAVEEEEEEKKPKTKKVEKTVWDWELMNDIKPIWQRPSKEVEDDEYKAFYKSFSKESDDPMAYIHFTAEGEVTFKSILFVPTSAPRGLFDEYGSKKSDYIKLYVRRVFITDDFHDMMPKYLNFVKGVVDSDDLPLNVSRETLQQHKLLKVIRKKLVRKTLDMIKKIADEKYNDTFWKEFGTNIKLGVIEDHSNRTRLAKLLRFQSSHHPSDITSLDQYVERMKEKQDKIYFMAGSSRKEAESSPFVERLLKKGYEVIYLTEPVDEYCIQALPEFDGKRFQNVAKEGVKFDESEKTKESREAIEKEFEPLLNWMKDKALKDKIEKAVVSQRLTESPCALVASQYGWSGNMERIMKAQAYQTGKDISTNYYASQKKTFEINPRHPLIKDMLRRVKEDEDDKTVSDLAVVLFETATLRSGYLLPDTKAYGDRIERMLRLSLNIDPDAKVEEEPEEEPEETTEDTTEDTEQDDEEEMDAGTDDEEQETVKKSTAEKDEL

`CO[C@H]1C=CC=C(C)C(=O)Nc2cc(O)c(N)c(c2O)C=C(C)C[C@H](OC)[C@H](O)[C@@H](C)/C=C(\C)[C@@H]1OC(N)=O` [17-amino-17-demethoxygeldanamycin] showed an EC50 of 48 nM.
